Laboratory results from patent publication US8288371B2, “Ortho pyrrolidine, benzyl-substituted heterocycle CCR1 antagonists for autoimmune diseases and inflammation” (Pharmacopeia, LLC, priority 2007, dated 2012).

Target: T1, human CCR1 (Homo sapiens, UniProt P32246)
T1 sequence (P32246 1-355): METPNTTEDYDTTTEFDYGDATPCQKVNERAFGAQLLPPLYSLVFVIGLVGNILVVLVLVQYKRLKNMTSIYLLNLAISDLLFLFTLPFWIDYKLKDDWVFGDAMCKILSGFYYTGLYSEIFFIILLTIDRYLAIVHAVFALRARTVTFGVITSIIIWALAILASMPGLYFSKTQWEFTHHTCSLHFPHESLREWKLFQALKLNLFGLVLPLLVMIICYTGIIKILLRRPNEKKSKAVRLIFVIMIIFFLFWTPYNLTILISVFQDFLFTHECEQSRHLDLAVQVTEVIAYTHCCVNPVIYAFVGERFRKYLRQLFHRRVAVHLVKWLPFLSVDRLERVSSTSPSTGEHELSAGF
Test: CCR1 binding protocol (SPA, [125I]-MIP-1α displacement)
Conditions: cell membrane expressing human CCR1, 0.1 nM [125I]-MIP-1α, 4 hours at ambient temperature; read-out: Relative potency (IC50)
How it was run: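 Displacement of 0.1 nM [125I]-MIP-1α (final) from membranes expressing human CCR1 was measured by scintillation proximity after 4 h at ambient temperature. Conditions: pH 7.4 Tris buffer with 0.1% BSA and MnCl, and 0.5 μg membrane per well. Compounds were tested as a 10-step ½-log series from a 10 mM DMSO stock to derive IC50.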

IC50	Structure (SMILES)
50 to 500 nM	COC(=O)c1ccc(C(F)(F)F)c(NC(=O)N2CCC[C@@H]2c2nnc(C)n2Cc2ccc(Cl)cc2)c1 [Compound 317]
< 50 nM	COC(=O)c1cc(NC(=O)N2CCC[C@@H]2c2nnc(C)n2Cc2ccc(Cl)cc2)c(C)cc1C [Compound 318]
50 to 500 nM	Cc1noc(C)c1N/C(=N/C#N)N1CCC[C@@H]1c1nnc(C)n1Cc1ccc(Cl)cc1 [Compound 319]
< 50 nM	Cc1nn(C)c(C)c1NC(=O)N1CCC[C@@H]1c1nnc(C)n1Cc1ccc(Cl)cc1 [Compound 320]
50 to 500 nM	Cc1nnc([C@H]2CCCN2C(=O)Nc2ccc3nonc3c2)n1Cc1ccc(Cl)cc1 [Compound 321]
< 50 nM	Cc1ccc(C(C)(C)NC(=O)N2CCC[C@@H]2c2nnc(C)n2Cc2ccc(Cl)cc2)cc1 [Compound 322]
50 to 500 nM	Cc1noc(C)c1NC(=O)N1CCC[C@@H]1c1nnc(CO)n1Cc1ccc(Cl)cc1 [Compound 323]
50 to 500 nM	Cc1noc(C)c1NC(=O)N1CCC[C@@H]1c1nnc(C)n1C1(c2ccc(Cl)cc2)CC1 [Compound 324]
50 to 500 nM	Cc1nnc([C@H]2CCCN2C(=O)Nc2ccc(Cl)cc2F)n1C1(c2ccc(Cl)cc2)CC1 [Compound 325]
< 50 nM	Cc1nc(C)c(NC(=O)N2CCC[C@@H]2c2nnc(C)n2Cc2ccc(Cl)cc2)c(C)n1 [Compound 326]
50 to 500 nM	Cc1nnc([C@H]2CCCN2C(=O)Nc2ccc3c(c2)N(C)C(=O)CO3)n1C1(c2ccc(Cl)cc2)CC1 [Compound 327]
50 to 500 nM	Cc1nnc([C@H]2CCCN2C(=O)N[C@H]2CCOc3cc(C(F)(F)F)ccc32)n1C1(c2ccc(Cl)cc2)CC1 [Compound 328]
50 to 500 nM	Cc1nnc([C@H]2CCCN2C(=O)NC2(c3ccccc3)CC2)n1C1(c2ccc(Cl)cc2)CC1 [Compound 329]
50 to 500 nM	Cc1nnc([C@H]2CCCN2C(=O)Nc2ccc(S(C)(=O)=O)cc2)n1Cc1ccc(Cl)cc1 [Compound 330]
50 to 500 nM	Cc1nnc([C@H]2CCCN2C(=O)Nc2ccc(S(C)(=O)=O)cc2Cl)n1Cc1ccc(Cl)cc1 [Compound 331]
50 to 500 nM	Cc1nnc([C@H]2CCCN2C(=O)Nc2cc(C(N)=O)ccc2Cl)n1Cc1ccc(Cl)cc1 [Compound 332]
500 to 5000 nM	Cc1nnc([C@H]2CCCN2C(=O)NC2CCOCC2)n1Cc1ccc(Cl)cc1 [Compound 333]
500 to 5000 nM	Cc1nnc([C@H]2CCCN2C(=O)Nc2cccc(S(C)(=O)=O)c2)n1Cc1ccc(Cl)cc1 [Compound 334]
500 to 5000 nM	Cc1nnc([C@H]2CCCN2C(=O)Nc2cc(C(=O)O)ccc2C(F)(F)F)n1Cc1ccc(Cl)cc1 [Compound 335]
500 to 5000 nM	Cc1nnc([C@H]2CCCN2C(=O)N[C@H]2CCOc3cc(C(F)(F)F)ccc32)n1Cc1cccc(Cl)c1 [Compound 336]
50 to 500 nM	Cc1nnc([C@H]2CCCN2C(=O)N[C@H]2CCOc3cc(C(F)(F)F)ccc32)n1[C@@H](C)c1ccc(Cl)cc1 [Compound 337]
< 50 nM	N#Cc1ccc2c(c1)OCC[C@@H]2NC(=O)N1CCC[C@@H]1c1nnc(CO)n1Cc1ccc(Cl)cc1 [Compound 338]

IC50	Structure (SMILES)
500 to 5000 nM	Cc1nnc([C@H]2CCCN2C(=O)Nc2ccc3c(c2)OCC(=O)N3C)n1Cc1ccc(Cl)cc1 [Compound 339]
< 50 nM	N#Cc1ccc2c(c1)OCC[C@H]2NC(=O)N1CCC[C@@H]1c1nnc(CO)n1Cc1ccc(Cl)cc1 [Compound 340]
< 50 nM	Cc1cc(NC(=O)N2CCC[C@@H]2c2nnc(C)n2Cc2ccc(Cl)cc2)n(-c2ccccc2)n1 [Compound 341]
500 to 5000 nM	Cc1nnc([C@H]2CCCN2C(=O)Nc2ccc(Cl)cc2F)n1[C@@H](C)c1ccc(Cl)cc1 [Compound 342]
50 to 500 nM	Cc1nnc([C@H]2CCCN2C(=O)N[C@@H](C)C(C)C)n1Cc1ccc(Cl)cc1 [Compound 343]
500 to 5000 nM	Cc1nnc([C@H]2CCCN2C(=O)Nc2ncc(Cl)cn2)n1Cc1ccc(Cl)cc1 [Compound 344]
50 to 500 nM	Cc1nnc([C@H]2CCCN2/C(=N\C#N)N[C@H]2CCOc3cc(C#N)ccc32)n1Cc1ccc(Cl)cc1 [Compound 345]
50 to 500 nM	Cc1cc(C)c(C(=O)O)cc1NC(=O)N1CCC[C@@H]1c1nnc(C)n1Cc1ccc(Cl)cc1 [Compound 346]
< 50 nM	Cc1nnc([C@H]2CCCN2C(=O)Nc2cc(C(=O)N(C)C)ccc2Cl)n1Cc1ccc(Cl)cc1 [Compound 347]
< 50 nM	Cc1ncncc1NC(=O)N1CCC[C@@H]1c1nnc(C)n1Cc1ccc(Cl)cc1 [Compound 348]
50 to 500 nM	Cc1nnc([C@H]2CCCN2C(=O)Nc2ccc(Cl)cc2F)n1[C@H](C)c1ccc(Cl)cc1 [Compound 349]
< 50 nM	Cc1nc(Cl)ncc1NC(=O)N1CCC[C@@H]1c1nnc(C)n1Cc1ccc(Cl)cc1 [Compound 350]
50 to 500 nM	Cc1nnc([C@H]2CCCN2C(=O)NC2(c3ccccc3)CC2)n1[C@@H](C)c1ccc(Cl)cc1 [Compound 351]
50 to 500 nM	Cc1nnc([C@H]2CCCN2C(=O)Nc2ccc3c(c2)N(C)C(=O)CO3)n1[C@H](C)c1ccc(Cl)cc1 [Compound 352]
50 to 500 nM	Cc1nnc([C@H]2CCCN2C(=O)N[C@H]2CCOc3cc(C(F)(F)F)ccc32)n1[C@H](C)c1ccc(Cl)cc1 [Compound 353]
500 to 5000 nM	Cc1nnc([C@H]2CCCN2C(=O)Nc2cccc(S(N)(=O)=O)c2)n1Cc1ccc(Cl)cc1 [Compound 354]
500 to 5000 nM	Cc1nnc([C@H]2CCCN2C(=O)Nc2ccc(S(N)(=O)=O)cc2)n1Cc1ccc(Cl)cc1 [Compound 355]
< 50 nM	Cc1nnc([C@H]2CCCN2C(=O)Nc2cc(-c3ccccc3)nn2C)n1Cc1ccc(Cl)cc1 [Compound 356]
50 to 500 nM	Cc1nnc([C@H]2CCCN2C(=O)NC2(c3ccccc3)CC2)n1[C@H](C)c1ccc(Cl)cc1 [Compound 357]
50 to 500 nM	Cc1nnc([C@H]2CCCN2C(=O)Nc2cc(C(N)=O)ccc2C(F)(F)F)n1Cc1ccc(Cl)cc1 [Compound 358]
< 50 nM	CNC(=O)c1ccc(C(F)(F)F)c(NC(=O)N2CCC[C@@H]2c2nnc(C)n2Cc2ccc(Cl)cc2)c1 [Compound 359]
50 to 500 nM	CNC(=O)c1ccc(C)c(N/C(=N/C#N)N2CCC[C@@H]2c2nnc(C)n2Cc2ccc(Cl)cc2)c1 [Compound 360]

IC50	Structure (SMILES)
< 50 nM	Cc1cc(C)c(S(C)(=O)=O)cc1NC(=O)N1CCC[C@@H]1c1nnc(C)n1Cc1ccc(Cl)cc1 [Compound 361]
< 50 nM	Cc1ccc(NC(=O)N2CCC[C@@H]2c2nnc(C)n2Cc2ccc(Cl)cc2)c(C)n1 [Compound 362]
50 to 500 nM	Cc1cc(C)c(C(N)=O)cc1NC(=O)N1CCC[C@@H]1c1nnc(C)n1Cc1ccc(Cl)cc1 [Compound 363]
500 to 5000 nM	Cc1nnc([C@H]2CCCN2C(=O)Nc2ccc(Cl)cc2F)n1Cc1ccc(Cl)nc1 [Compound 364]
50 to 500 nM	Cc1noc(C)c1NC(=O)N1CCC[C@@H]1c1nnc(C)n1[C@H](C)c1ccc(Cl)cc1 [Compound 365]
50 to 500 nM	Cc1nnc([C@H]2CCCN2C(=O)Nc2ccc(Cl)cc2F)n1Cc1ccc(F)cc1 [Compound 367]
< 50 nM	Cc1nnc([C@H]2CCCN2C(=O)N[C@@H]2CCS(=O)(=O)c3ccc(Cl)cc32)n1Cc1ccc(Cl)cc1 [Compound 368]
< 50 nM	Cc1nnc([C@H]2CCCN2C(=O)N[C@H]2CCS(=O)(=O)c3ccc(Cl)cc32)n1Cc1ccc(Cl)cc1 [Compound 369]
< 50 nM	O=C(N[C@@H]1CCS(=O)(=O)c2ccc(Cl)cc21)N1CCC[C@@H]1c1nnc(CO)n1Cc1ccc(Cl)cc1 [Compound 370]
50 to 500 nM	O=C(N[C@H]1CCS(=O)(=O)c2ccc(Cl)cc21)N1CCC[C@@H]1c1nnc(CO)n1Cc1ccc(Cl)cc1 [Compound 371]
500 to 5000 nM	N#C/N=C(\Nc1ccc(C(F)(F)F)cc1)N1CCC[C@@H]1c1nnc(CO)n1Cc1ccc(Cl)cc1 [Compound 372]
50 to 500 nM	N#C/N=C(\N[C@H]1CCOc2cc(C(F)(F)F)ccc21)N1CCC[C@@H]1c1nnc(CO)n1Cc1ccc(Cl)cc1 [Compound 373]
500 to 5000 nM	N#C/N=C(\NC1(c2ccccc2)CC1)N1CCC[C@@H]1c1nnc(CO)n1Cc1ccc(Cl)cc1 [Compound 374]
50 to 500 nM	Cc1cc(C)c(C(=O)N(C)C)cc1NC(=O)N1CCC[C@@H]1c1nnc(C)n1Cc1ccc(Cl)cc1 [Compound 375]
50 to 500 nM	Cc1nnc([C@H]2CCCN2C(=O)Nc2cc(S(C)(=O)=O)ccc2F)n1Cc1ccc(Cl)cc1 [Compound 376]
50 to 500 nM	Cc1nnc([C@H]2CCCN2/C(=N/C#N)NCc2ccc(C(F)(F)F)cc2)n1Cc1ccc(Cl)cc1 [Compound 377]
50 to 500 nM	Cc1nnc([C@H]2CCCN2C(=O)Nc2ccccc2S(C)(=O)=O)n1Cc1ccc(Cl)cc1 [Compound 378]
50 to 500 nM	Cc1nnc([C@H]2CCCN2C(=O)Nc2cc(C(=O)N(C)C)ccc2C(F)(F)F)n1Cc1ccc(Cl)cc1 [Compound 379]
< 50 nM	CNC(=O)c1cc(NC(=O)N2CCC[C@@H]2c2nnc(C)n2Cc2ccc(Cl)cc2)c(C)cc1C [Compound 380]
500 to 5000 nM	Cc1nnc([C@H]2CCCN2C(=O)Nc2ccc3c(c2)N(C)C(=O)CO3)n1Cc1ccc(Cl)nc1 [Compound 381]
50 to 500 nM	Cc1nnc([C@H]2CCCN2C(=O)N[C@H]2CCOc3cc(C(F)(F)F)ccc32)n1Cc1ccc(Cl)nc1 [Compound 382]
50 to 500 nM	Cc1nnc([C@H]2CCCN2C(=O)NC2(c3ccccc3)CC2)n1Cc1ccc(Cl)nc1 [Compound 383]

Structure (SMILES)	IC50
Cc1noc(C)c1NC(=O)N1CCC[C@@H]1c1nnc(C)n1Cc1ccc(Cl)nc1 [Compound 366]	50 to 500 nM
